In ChEMBL document CHEMBL1629699, “Cell wall thickening is not a universal accompaniment of the daptomycin nonsusceptibility phenotype in Staphylococcus aureus: evidence for multiple resistance mechanisms” (Antimicrob Agents Chemother, 2010):
In brackets after ≈: the same amount, converted by molar mass.

Columns and labels:
Cell membrane [1] = assay: Binding affinity to methicillin-susceptible Staphylococcus aureus 11/11 cell membrane assessed as amount of compound bound at 8 ug after 10 mins
Cell membrane [2] = assay: Binding affinity to daptomycin-resistant Staphylococcus aureus REF2145 cell membrane assessed as amount of compound bound at 8 ug after 10 mins
Staphylococcus aureus [3] = assay: AUC in methicillin-resistant sStaphylococcus aureus 11/11; conditions: in vitro population analysis
Staphylococcus aureus [4] = assay: Antimicrobial activity against Staphylococcus aureus CB1482 after 24 hrs by plate reader analysis; conditions: CB1482, 24 h
Staphylococcus aureus [5] = assay: Antimicrobial activity against Staphylococcus aureus CB5053 by Etest
Staphylococcus aureus [6] = assay: Antimicrobial activity against Staphylococcus aureus CB5054 by Etest; format: functional
Staphylococcus aureus [7] = assay: Antimicrobial activity against Staphylococcus aureus CB5035 by Etest; format: functional
Staphylococcus aureus [8] = assay: Antimicrobial activity against Staphylococcus aureus CB5036 by Etest; format: functional
Staphylococcus aureus [9] = assay: Antimicrobial activity against Staphylococcus aureus BMC1001 by Etest
Staphylococcus aureus [10] = assay: Antimicrobial activity against Staphylococcus aureus BMC1002 by Etest; format: functional
Cell membrane [11] = assay: Binding affinity to methicillin-susceptible Staphylococcus aureus 11/11 cell membrane assessed as amount of compound bound at 6 ug after 10 mins
Cell membrane [12] = assay: Binding affinity to daptomycin-resistant Staphylococcus aureus REF2145 cell membrane assessed as amount of compound bound at 6 ug after 10 mins
Staphylococcus aureus [13] = assay: Antimicrobial activity against Staphylococcus aureus CB184 after 24 hrs by Etest; conditions: CB184, 24 h

| Compound | Activity (Cell membrane [1]) [µg/mL] | Activity (Cell membrane [2]) [µg/mL] | AUC (Staphylococcus aureus [3]) [µg/mL] | MIC (Staphylococcus aureus [4]) [µg/mL] | MIC (Staphylococcus aureus [5]) [µg/mL] | MIC (Staphylococcus aureus [6]) [µg/mL] | MIC (Staphylococcus aureus [7]) [µg/mL] | MIC (Staphylococcus aureus [8]) [µg/mL] | MIC (Staphylococcus aureus [9]) [µg/mL] | MIC (Staphylococcus aureus [10]) [µg/mL] | Activity (Cell membrane [11]) [µg/mL] | Activity (Cell membrane [12]) [µg/mL] | MIC (Staphylococcus aureus [13]) [µg/mL] |
| --- | --- | --- | --- | --- | --- | --- | --- | --- | --- | --- | --- | --- | --- |
| CN[C@H](CC(C)C)C(=O)N[C@H]1C(=O)N[C@@H](CC(N)=O)C(=O)N[C@H]2C(=O)N[C@H]3C(=O)N[C@H](C(=O)N[C@H](C(=O)O)c4cc(O)cc(O)c4-c4cc3ccc4O)[C@H](O)c3ccc(c(Cl)c3)Oc3cc2cc(c3O[C@@H]2O[C@H](CO)[C@@H](O)[C@H](O)[C@H]2O[C@H]2C[C@](C)(N)[C@H](O)[C@H](C)O2)Oc2ccc(cc2Cl)[C@H]1O [VANCOMYCIN] | 1.81 | 1.78 | 5.96 | – | – | – | – | – | – | – | – | – | – |
| CCCCCCCCCC(=O)N[C@@H](Cc1c[nH]c2ccccc12)C(=O)N[C@H](CC(N)=O)C(=O)N[C@@H](CC(=O)O)C(=O)N[C@@H]1C(=O)NCC(=O)N[C@@H](CCCN)C(=O)N[C@@H](CC(=O)O)C(=O)N[C@H](C)C(=O)N[C@@H](CC(=O)O)C(=O)NCC(=O)N[C@H](CO)C(=O)N[C@@H]([C@H](C)CC(=O)O)C(=O)N[C@@H](CC(=O)c2ccccc2N)C(=O)O[C@@H]1C | – | – | 8.41 | 0.5 (≈ 0.309 µM) | 0.5 (≈ 0.309 µM) | 2 (≈ 1.23 µM) | 0.38 (≈ 0.234 µM) | 2 (≈ 1.23 µM) | 0.5 (≈ 0.309 µM) | 2 (≈ 1.23 µM) | 2.03 | 0.79 | 4 (≈ 2.47 µM) |
